One compound from ChEMBL document CHEMBL5518193, “Discovery of N-alkyl-N-benzyl thiazoles as novel TRPC antagonists for the treatment of glioblastoma multiforme” (Eur J Med Chem, 2024) can be followed below.

Structures are written as SMILES.

For orientation: IC50 means the midpoint of a concentration-inhibition curve. As a reminder, the Tmax is the time at which the peak concentration occurs. In general, Cmax refers to the maximum level reached in the sampled fluid or tissue.

In series [1] the target is T1, Short transient receptor potential channel 4 (Mus musculus, UniProt Q9QUQ5).
T1 sequence (Q9QUQ5 whole entry): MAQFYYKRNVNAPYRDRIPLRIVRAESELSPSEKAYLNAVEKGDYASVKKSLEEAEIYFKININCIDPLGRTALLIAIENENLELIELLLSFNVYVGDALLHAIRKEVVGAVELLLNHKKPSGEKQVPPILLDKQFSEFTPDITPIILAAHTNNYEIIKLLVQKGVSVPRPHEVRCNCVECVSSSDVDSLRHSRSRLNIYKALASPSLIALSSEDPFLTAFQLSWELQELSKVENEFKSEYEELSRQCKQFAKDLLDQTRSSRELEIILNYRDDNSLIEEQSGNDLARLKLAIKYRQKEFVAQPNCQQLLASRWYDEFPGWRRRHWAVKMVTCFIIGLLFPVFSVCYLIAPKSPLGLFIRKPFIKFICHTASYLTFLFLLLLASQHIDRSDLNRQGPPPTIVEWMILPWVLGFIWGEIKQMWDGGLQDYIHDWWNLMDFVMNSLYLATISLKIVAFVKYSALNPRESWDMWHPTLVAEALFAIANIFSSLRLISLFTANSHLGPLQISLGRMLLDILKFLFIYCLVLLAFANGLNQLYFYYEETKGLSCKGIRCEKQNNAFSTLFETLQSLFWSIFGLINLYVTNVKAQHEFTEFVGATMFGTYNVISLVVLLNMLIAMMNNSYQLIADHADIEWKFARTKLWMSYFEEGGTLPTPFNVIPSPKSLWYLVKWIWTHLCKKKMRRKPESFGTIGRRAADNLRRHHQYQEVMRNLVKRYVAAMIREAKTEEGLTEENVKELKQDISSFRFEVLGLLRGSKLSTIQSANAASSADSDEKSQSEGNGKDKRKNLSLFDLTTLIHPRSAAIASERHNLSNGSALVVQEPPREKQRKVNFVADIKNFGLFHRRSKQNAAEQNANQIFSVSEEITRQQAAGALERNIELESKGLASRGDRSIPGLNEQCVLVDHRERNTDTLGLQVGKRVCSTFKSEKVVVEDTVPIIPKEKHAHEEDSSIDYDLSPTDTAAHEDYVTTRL
The experiment in a line: Antagonist activity at mouse TRPC4 stably expressed in HEK293 cells inhibition of calcium influx by calcium fluorescence assay. It counts as cell-based.

Series [2] has as its system U-87 MG. The experiment in a line: Antiproliferative activity against human U87 cells assessed as reduction in cell viability incubated for 72 hrs by MTT assay. It counts as functional, cell-based, U-87MG ATCC. (In general: Tetrazolium dyes change colour on reduction, which living cells bring about.)
A short description of series [3]: Tmax in BALB/c mouse at 12.5 mg/kg, ip administered as liposome encapsulated form measured upto 24 hrs by LC-MS/MS analysis. The series is classed as ADME, organism-based. As to conditions: in vivo.
The nature of series [4]: Tmax in BALB/c mouse at 25 mg/kg, ip administered as liposome encapsulated form and measured upto 24 hrs by LC-MS/MS analysis. It counts as ADME, organism-based. To be noted: in vivo.
For series [5], the system named is U-87 MG. The experiment in a line: Antitumor activity against human U87 cells xenografted in BALB/c nude mouse assessed as tumor growth inhibition at 25 mg/kg/day administered as liposome encapsulated form for 15 days and measured every 3 days by vernier caliper. It counts as functional, U-87MG ATCC. As to conditions: 360 h, time 15 day, read-out: TGI. A general note: A xenograft is tissue or cells of one species grown in another, often human tumour cells in immunodeficient mice.

Series [6] is described as follows: Cmax in BALB/c mouse at 12.5 mg/kg, ip administered as liposome encapsulated form and measured upto 24 hrs by LC-MS/MS analysis. It counts as ADME, organism-based. As to conditions: in vivo.

On to `NCCN(Cc1ccc2ccccc2c1)c1nc(C(=O)Nc2ccc(O)cc2)cs1`, for which the figures for the IC50 (in series [1]; in the series with U-87 MG [2]) were 12.2 µM and 5.7 µM, respectively. Also, the Tmax in series [3] and in series [4] was 4 h in each case. Further, in the series with U-87 MG [5], the inhibition in vivo at 25 mg/kg/day stood at 45.8%. In series [6], this compound gave a Cmax of 288 ng/mL.
